{"source": "patent US20230305016A1", "about": "“TEST KIT AND METHOD OF DETERMINING TRYPTOPHAN IN EXTRACTS OF FAECAL SAMPLES” (IMMUNDIAGNOSTIK AG, priority 2020, published 2023)", "key": {"depression": {"test_system": "depression", "conditions": "cited from earlier work; for side effects: adults; for effective in alleviating depression in adults: versus placebo"}, "[1]": {"assay": "Alkaline hydrolyzation of spiked fructose-tryptophan Amadori product in stool extract", "format": "physicochemical", "conditions": "10 M NaOH, 100° C., 20 min", "method": "5 mg fructose-tryptophan Amadori product (MW=366.37 Da) was dissolved in 2.27 ml aqua dest. (6 mM/L). The concentration of peptide groups in this solution was determined to be 4.36 mM/L using a BCA test (Smith P K et al, Measurement of protein using bicinchoninic acid, in: Analytical Biochemistry […], 150(1):76-85, doi:10.1016/0003-2697(85)90442-7). This concentration was taken in the spiking experiments. The IDK® Amino Extract (dilution 1:50) was spiked with fructose-tryptophan Amadori product (not the raw stool) to achieve a target concentration the spiked fecal extract of 6 μM Amadori adduct/L. This corresponds to a spiking of 300 μM fructose-tryptophan Amadori product per gram stool as the stool was diluted 1:50 in the extract.\nThe spiking and hydrolyzation was carried out as follows: 70 μl stool extract were spiked with 10 μl 60 μM/L fructose-tryptophan Amadori product (as determined by BCA) and 10 μl 10 M NaOH. This solution was incubated at 100° C. for 20 min. to achieve hydrolyzation of all adducts and centrifuged at 550 rpm for removal of any precipitate. Finally, 10 μl 10 M HCl was added to neutralize (dilution 1:10) the solution prior measurement of tryptophan. In case of a spiking with fructose or tryptophan, the spiking solution contained 60 μM/L fructose and/or tryptophan each."}, "[2]": {"conditions": "carboxyl group; cited from earlier work"}, "[3]": {"set-up": "key to Oxidation into 14CO2: x: Detected but not quantified; xx: Detected but not quantified", "conditions": "rats, cited from earlier work"}, "GLUT5": {"test_system": "GLUT5", "conditions": "mice; duodenum and adipose tissue; cited from earlier work"}, "[4]": {"conditions": "rat, in vivo; cited from earlier work"}, "[5]": {"conditions": "% of the ingested/injected material"}}, "note": "Like-named read-outs stand apart in the source and are kept apart here.", "data": [{"molecule": "N[C@@H](Cc1c[nH]c2ccc(O)cc12)C(=O)O", "note": "[5-HTP, 5-hydroxytryptophan]", "values": [{"measurement": "side effects", "setting": "depression", "value": "may have serious side effects"}, {"measurement": "effective in alleviating depression in adults", "setting": "depression", "value": "better than placebo"}]}, {"molecule": "D-fructose-L-tryptophan [fructose-tryptophan Amadori product]", "values": [{"measurement": "hydrolyzation of added adduct", "setting": "[1]", "value": "hydrolyzed"}]}, {"molecule": "N[C@@H](Cc1c[nH]c2ccccc12)C(=O)O", "note": "[tryptophan]", "values": [{"measurement": "side effects", "setting": "depression", "value": "may have serious side effects"}, {"measurement": "effective in alleviating depression in adults", "setting": "depression", "value": "better than placebo"}, {"measurement": "pKa", "setting": "[2]", "value": "2,38"}]}, {"molecule": "N[C@@H](Cc1c[nH]c2ccccc12)C(=O)O", "note": "[^14C-Tryptophan]", "values": [{"measurement": "Retention in liver", "setting": "[3]; [5]", "value": 0.7, "unit": "%"}, {"measurement": "urinary excretion", "setting": "[3]; [5]", "value": 60, "unit": "%"}, {"measurement": "Oxidation into 14CO2", "setting": "[3]; detected but not quantified", "value": "xx^b"}, {"measurement": "urinary excretion", "setting": "[3]; summary of Table 1", "value": "~60", "unit": "%"}]}, {"molecule": "O=S(=O)(c1ccccc1)N(CC(F)(F)F)c1ccc(C(O)(C(F)(F)F)C(F)(F)F)cc1", "note": "[T0901317]", "values": [{"measurement": "GLUT5 mRNA", "setting": "GLUT5", "value": "increase"}, {"measurement": "GLUT5 protein levels", "setting": "GLUT5", "value": "increased"}]}, {"molecule": "NC(CCCCNCC(=O)C(O)C(O)C(O)CO)C(=O)O", "note": "(stereo not shown) [ε-Lysine]", "values": [{"measurement": "absorption in the intestine", "setting": "[4]", "value": "NOT absorbed in the intestine"}]}]}
